This is an account of results in patent publication US20240216354A1, “IMMUNOMODULATORY IMIDE DRUGS AS ZETA-CHAIN-ASSOCIATED PROTEIN KINASE 70 (ZAP70) AGONISTS AND USES THEREOF” (Dana-Farber Cancer Institute, Inc., priority 2019, published 2024).

What all share (assay type): cell-based
Assay [1] concerns the target T1, Zap-70 (Homo sapiens, UniProt P43403).
T1 sequence (P43403 1-619): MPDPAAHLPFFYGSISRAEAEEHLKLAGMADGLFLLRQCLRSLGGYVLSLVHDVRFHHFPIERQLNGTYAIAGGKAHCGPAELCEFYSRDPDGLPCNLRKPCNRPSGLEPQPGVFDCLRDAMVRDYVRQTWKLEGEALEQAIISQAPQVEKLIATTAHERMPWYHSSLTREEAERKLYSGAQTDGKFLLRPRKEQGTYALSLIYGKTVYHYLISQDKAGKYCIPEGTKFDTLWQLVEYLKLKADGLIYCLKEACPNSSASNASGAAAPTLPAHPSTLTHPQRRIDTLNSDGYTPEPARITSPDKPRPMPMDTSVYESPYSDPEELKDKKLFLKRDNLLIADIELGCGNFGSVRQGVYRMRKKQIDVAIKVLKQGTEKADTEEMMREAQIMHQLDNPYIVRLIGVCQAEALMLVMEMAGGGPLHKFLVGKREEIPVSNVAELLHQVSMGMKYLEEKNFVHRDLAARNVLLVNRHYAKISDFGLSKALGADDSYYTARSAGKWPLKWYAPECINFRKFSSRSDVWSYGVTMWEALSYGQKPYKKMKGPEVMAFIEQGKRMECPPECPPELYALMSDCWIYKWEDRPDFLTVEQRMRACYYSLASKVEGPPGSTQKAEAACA
Nature of the assay: Immunoblotting of p-Zap-70, p-LAT and p-ERK in PBMCs. Also on record: endogenous in cells; host or cells: primary PBMCs, primary T cells and primary NK cells from healthy volunteers. How it is done: (§1) (A) PBMCs were cultured with pomalidomide (“Pom”) (0.01-1 μM) for 16 h. […] (B) PBMCs were cultured with pomalidomide (0.1 and 1 μM) for the indicated time periods. (C) PBMCs were cultured with lenalidomide (“Len”) (1 μM) for 16 h. (D) Primary T-cells from healthy volunteer were cultured with pomalidomide (0.25-1 μM) for 16 h. (E) Jurkat cells were cultured with pomalidomide (0.5 and 1 μM) for 16 h. Whole cell lysates were subjected to immunoblotting (A-E) using indicated Abs. (F) Jurkat cells were cultured with pomalidomide (0.01-1 μM) or lenalidomide (0.01-1 μM) for 72 h. Cell growth was assessed by MTT assay.
To characterize the effect of IMiDs on Zap-70 function in immune effector cells, pomalidomide triggered phosphorylation of Zap-70 was evaluated along with its known downstream target linker of activated T-cells (LAT) in PBMCs from healthy volunteers. […] Image J densitometric analysis confirmed 42% increased p-Zap-70 after pomalidomide (1 μM) treatment (FIG. 1A, lower panel). The increased p-Zap-70, p-LAT, as well as downstream p-ERK in PBMCs triggered by pomalidomide is also time-dependent (FIG. 1B). […] Since Zap-70 is a mediator of T-cell receptor signaling, whether IMiDs triggered p-Zap-70 in T cells from healthy volunteers was studied.

The next assay has as its system U266 cells. Briefly: NK-92 NK cell activity against calcein-AM-stained U266 cells. As to conditions: NK-92 cells, 48 h; Pom 0.5 and 1 μM; CC-220 0.1 and 1 μM, E/T 2.5/1. How it is done: (A) NK-92 cells were cultured with Pom (0.5 and 1 μM) for 24 h. Whole cell lysates were subjected to immunoblotting using indicated Abs. (B) NK-92 cells were cultured with Pom (0.5 and 1 μM) for 48 h. The cells were subsequently incubated with calcein-AM-stained U266 cells for 4 h at the indicated effector/target (E/T) ratios. Percent specific lysis was calculated as described previously. (C) NK-92 cells were cultured with Pom (0.03-3 μM) for 72 h. Cell growth was assessed by MTT assay. (D) NK-92 cells were transfected with scrambled (Sc) or Zap-70 siRNA (Zap70si). After 72 h incubation, cell viability was measured by trypan-blue dye exclusion. For B, C, and D, data are representative of at least two independent experiments, and values are expressed in mean±SD.
(A) NK-92 cells were cultured with Len (1 μM), Pom (0.01, 0.1, 1 μM) or CC-220 (0.01, 0.1, 1 μM) for 24 h. Whole cell lysates were subjected to immunoblotting using indicated Abs. (B) NK-92 cells were cultured with Pom (0.1 and 1 μM) or CC-220 ([…]) for 48 h. NK cell activity was measured by incubation with calcein AM-labeled U266 cells for 4 h at E/T ratio of 2.5/1. Percent specific lysis was calculated as previously described. Data are representative of three independent experiments, and values are expressed in mean±SD. *: p<0.01.

Assay [2] concerns the target T1, Zap-70. Nature of the assay: Immunoblotting of p-Zap-70 in Jurkat cells. As to conditions: 16 h. The method, then: as §1
(A) Jurkat cells were transfected with scrambled siRNA (Scsi) or CRBN siRNA (CRBNsi). Whole cell lysates were subjected to immunoblotting using indicated Abs. (B) Jurkat cells transfected with Scsi or CRBNsi were cultured with pomalidomide (1 μM) for 16 h. Whole cell lysates were subjected to immunoblotting using indicated Abs. (C) Jurkat cells were transfected with Scsi or Zap-70 siRNA (Zap-70si) (left panel). The transfectants were further cultured for 72 h, and cell growth was assessed by MTT assay (right panel).

A further assay deals with granzyme-B (GZM-B). Briefly: GZM-B expression in KHYG-1 cells (immunoblotting, real-time qPCR). As to conditions: pomalidomide 0.25-1 μM, 24 h. The method, then: (A) KHYG1 cells were cultured with pomalidomide (0.25-1 μM) for 24 h. (B) Isolated primary NK cells from healthy volunteers (#1, #2) were cultured with pomalidomide (0.3-1 μM) for 24 h. (C) KHYG-1 cells were transfected with Scsi or Zap-70si. After 48 h, cells were cultured for 24 h in the absence or presence (0.5 μM) of pomalidomide. Whole cell lysates and RNAs were subjected to immunoblotting using indicated Abs.
(A) KHYG-1 cells were transfected with Scsi or CRBNsi. After 48 h, cells were cultured in the absence or presence of pomalidomide (0.5 μM) for 24 h, and cell lysates immunoblotted with indicated Abs. (B) KHYG-1 cells were transfected with Scsi or Zap-70si, and then cultured for 72 h with pomalidomide (0.25 μM), in the absence of IL-2. Cells were counted and incubated with calcein AM-labeled U266 for 4 h at indicated effector/target (E/T) ratios.
(A) KHYG-1 cells were transfected with CRBN, IKZF1, or IKZF3 siRNA. The transfectants were then cultured for 24 h with pomalidomide (0.5 μM). The arrow indicates CRBN. (B) KHYG-1 cells were cultured with pomalidomide for 24 h (0.5 μM), in the presence or absence of bortezomib (BTZ; 2.5 and 5 nM). (C, D) KHYG-1 cells were cultured for 24 h with lenalidomide, pomalidomide, or CC-220 (i.e., iberdomide) (0.01-1 μM). Whole cell lysates and RNAs were subjected to immunoblotting using indicated Abs (C) and real-time q-PCR (D), respectively.

Regarding `Nc1cccc2c1C(=O)N(C1CCC(=O)NC1=O)C2=O` (centres unmarked) [pomalidomide], on Zap-70 [1] (16 h, Pom 0.01-1 μM, Len 1 μM), the “phosphorylation of LAT (immunoblotting)” value was “induced phosphorylation of both Zap-70 and LAT in PBMCs in a dose-dependent fashion”; the “phosphorylation of Zap-70 (immunoblotting)” value was “induced phosphorylation of both Zap-70 and LAT in PBMCs in a dose-dependent fashion”. For the same compound, the “increased p-Zap-70, Image J densitometric analysis” value on Zap-70 [1] (pomalidomide 1 μM, 16 h) is 42%. For the same compound, the “increased p-Zap-70, p-LAT and downstream p-ERK over time” value on Zap-70 [1] (pomalidomide 0.1 and 1 μM, indicated time periods) is recorded as “time-dependent”. In the assay on U266 cells, the “NK cell activity against U266 cells (percent specific lysis)” value is on record as “upregulated NK activity”. Also, the “p-Zap-70 induced by pomalidomide in CRBN-knockdown versus control Sc KD cells” value at Zap-70 [2] (CRBN siRNA, pomalidomide 1 μM) was “No significant change”. The “p-Zap-70 (immunoblotting)” value at Zap-70 [2] (pomalidomide 0.5 and 1 μM) is on record as “similarly induced p-Zap-70 in Jurkat cells in a dose-dependent fashion”. The GZM-B expression entry in the assay with granzyme-B (GZM-B) was “upregulated GZM-B expression”.
